Assay results: ChEMBL document CHEMBL5113400, “Design, synthesis, and biological evaluation of trizole-based heteroaromatic derivatives as Bcr-Abl kinase inhibitors” (Eur J Med Chem, 2022)
pIC50: −log10 of the molar value.

Columns and labels:
[1] = tested on: K562; assay: Induction of apoptosis in human K562 cells assessed as necrotic cells at 1 uM incubated for 48 hrs by Annexin V-FITC/PI staining based flow cytometry analysis (Rvb= 0.09%); type: functional
[2] = biological target: Bcr/Abl fusion protein (Homo sapiens, UniProt P00519); assay: Inhibition of wild type Bcr-Abl (unknown origin) incubated for 1 hr in presence of ATP by ADP-Glo kinase assay; type: protein assay
[3] = biological target: Bcr/Abl fusion protein (Homo sapiens, UniProt P00519, T315I); assay: Inhibition of Bcr-Abl T315I mutant (unknown origin) incubated for 1 hr in presence of ATP by ADP-Glo kinase assay; type: protein assay
[4] = tested on: BaF3; assay: Antiproliferative activity against mouse BaF3 cells expressing Bcr-Abl T315I mutant assessed as inhibition of cell growth at 30 uM incubated for 72 hrs by CellTiter-Glo luminescent assay; type: functional
[5] = tested on: EA.hy 926; assay: Cytotoxicity against human EA.hy 926 cells assessed as inhibition of cell growth upto 100 uM incubated for 48 hrs by MTT assay; type: toxicity, cell-based; details: ea.hy 926, 48 h
[6] = tested on: BaF3; assay: Antiproliferative activity against mouse BaF3 cells expressing Bcr-Abl T315I mutant assessed as inhibition of cell growth incubated for 72 hrs by CellTiter-Glo luminescent assay; type: functional, cell-based; details: BaF3, 72 h
[7] = biological target: Dual specificity tyrosine-phosphorylation-regulated kinase 1B (Homo sapiens) (UniProt Q9Y463); assay: Inhibition of recombinant human DYRK1B at 10 uM for 10 mins followed by substrate addition in presence of ATP and measured after 60 mins by HTRF assay; details: time 70.0 min
[8] = biological target: Dual specificity tyrosine-phosphorylation-regulated kinase 1B (Homo sapiens) (UniProt Q9Y463); assay: Inhibition of recombinant human DYRK1B at 10 uM for 10 mins followed by substrate addition in presence of ATP and measured after 100 mins by ADP-Glo kinase assay; details: time 110.0 min
[9] = biological target: BDNF/NT-3 growth factors receptor (Homo sapiens) (UniProt Q16620); assay: Inhibition of recombinant human TRKB at 10 uM for 10 mins followed by substrate addition in presence of ATP and measured after 100 mins by ADP-Glo kinase assay; details: time 110.0 min
[10] = biological target: Vascular endothelial growth factor receptor 2 (Homo sapiens) (UniProt P35968); assay: Inhibition of recombinant human KDR at 10 uM for 10 mins followed by substrate addition in presence of ATP and measured after 60 mins by HTRF assay; details: time 70.0 min
[11] = biological target: T1, Tyrosine-protein kinase ITK/TSK (Homo sapiens) (UniProt Q08881); assay: Inhibition of recombinant human ITK at 10 uM for 10 mins followed by substrate addition in presence of ATP and measured after 100 mins by ADP-Glo kinase assay; details: time 110.0 min
T1 sequence (whole entry): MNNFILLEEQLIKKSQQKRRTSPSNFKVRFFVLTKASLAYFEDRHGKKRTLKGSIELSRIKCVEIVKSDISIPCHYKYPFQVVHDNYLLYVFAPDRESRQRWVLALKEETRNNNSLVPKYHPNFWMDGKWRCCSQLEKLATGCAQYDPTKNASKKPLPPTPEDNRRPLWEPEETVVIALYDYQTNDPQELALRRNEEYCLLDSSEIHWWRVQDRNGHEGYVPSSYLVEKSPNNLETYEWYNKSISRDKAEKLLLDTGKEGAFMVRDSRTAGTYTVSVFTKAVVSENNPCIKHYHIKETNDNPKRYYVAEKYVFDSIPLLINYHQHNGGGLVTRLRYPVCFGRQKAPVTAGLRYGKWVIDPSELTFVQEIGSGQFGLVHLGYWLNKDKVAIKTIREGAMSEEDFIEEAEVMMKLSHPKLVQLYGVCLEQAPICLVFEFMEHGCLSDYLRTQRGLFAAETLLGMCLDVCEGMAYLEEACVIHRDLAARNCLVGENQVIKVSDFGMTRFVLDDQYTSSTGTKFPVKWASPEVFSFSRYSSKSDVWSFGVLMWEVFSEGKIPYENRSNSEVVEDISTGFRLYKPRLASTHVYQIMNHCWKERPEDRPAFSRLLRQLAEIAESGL

[12] = tested on: K562; assay: Induction of apoptosis in human K562 cells assessed as late apoptotic cells at 5 uM incubated for 48 hrs by Annexin V-FITC/PI staining based flow cytometry analysis (Rvb= 14.66%); type: functional
[13] = tested on: K562; assay: Induction of apoptosis in human K562 cells assessed as viable cells at 5 uM incubated for 48 hrs by Annexin V-FITC/PI staining based flow cytometry analysis (Rvb=80.89%); type: functional; details: read-out: Activity
[14] = tested on: K562; assay: Induction of apoptosis in human K562 cells assessed as viable cells at 10 uM incubated for 48 hrs by Annexin V-FITC/PI staining based flow cytometry analysis (Rvb=80.89%); type: functional; details: read-out: Activity
[15] = biological target: T2, Signal transducer and activator of transcription 5A (Homo sapiens) (UniProt P42229); assay: Inhibition of STAT5 phosphorylation at Tyr694 residue in human K562 cells expressing wild type Bcr-Abl at 0.1 to 15 uM measured after 48 hrs by Western blot analysis; type: cell-based; details: dose 0.1-15 µM, DDE = dose-dependent effect
T2 sequence (whole entry): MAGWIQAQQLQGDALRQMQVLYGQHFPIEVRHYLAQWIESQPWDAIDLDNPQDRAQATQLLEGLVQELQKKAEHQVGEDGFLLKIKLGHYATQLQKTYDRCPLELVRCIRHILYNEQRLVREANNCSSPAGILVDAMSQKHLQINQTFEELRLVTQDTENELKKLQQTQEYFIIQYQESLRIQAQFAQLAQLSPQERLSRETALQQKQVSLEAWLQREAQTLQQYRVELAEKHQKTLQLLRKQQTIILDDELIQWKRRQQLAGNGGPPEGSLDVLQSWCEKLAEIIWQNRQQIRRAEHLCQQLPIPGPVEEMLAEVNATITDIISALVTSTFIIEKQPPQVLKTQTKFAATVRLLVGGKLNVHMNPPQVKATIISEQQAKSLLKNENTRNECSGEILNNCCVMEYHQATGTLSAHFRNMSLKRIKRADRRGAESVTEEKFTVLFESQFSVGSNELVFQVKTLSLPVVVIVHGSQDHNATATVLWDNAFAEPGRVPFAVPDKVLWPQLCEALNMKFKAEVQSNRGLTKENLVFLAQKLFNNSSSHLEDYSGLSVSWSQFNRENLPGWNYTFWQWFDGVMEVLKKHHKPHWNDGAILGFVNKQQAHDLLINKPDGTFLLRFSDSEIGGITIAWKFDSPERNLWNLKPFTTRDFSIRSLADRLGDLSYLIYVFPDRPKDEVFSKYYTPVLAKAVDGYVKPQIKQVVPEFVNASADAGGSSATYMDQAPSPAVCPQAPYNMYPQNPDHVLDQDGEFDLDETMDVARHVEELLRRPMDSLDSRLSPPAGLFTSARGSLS

Dual specificity tyrosine-phosphorylation-regulated kinase 1B (Homo sapiens), sequence (Q9Y463 whole entry, looked up): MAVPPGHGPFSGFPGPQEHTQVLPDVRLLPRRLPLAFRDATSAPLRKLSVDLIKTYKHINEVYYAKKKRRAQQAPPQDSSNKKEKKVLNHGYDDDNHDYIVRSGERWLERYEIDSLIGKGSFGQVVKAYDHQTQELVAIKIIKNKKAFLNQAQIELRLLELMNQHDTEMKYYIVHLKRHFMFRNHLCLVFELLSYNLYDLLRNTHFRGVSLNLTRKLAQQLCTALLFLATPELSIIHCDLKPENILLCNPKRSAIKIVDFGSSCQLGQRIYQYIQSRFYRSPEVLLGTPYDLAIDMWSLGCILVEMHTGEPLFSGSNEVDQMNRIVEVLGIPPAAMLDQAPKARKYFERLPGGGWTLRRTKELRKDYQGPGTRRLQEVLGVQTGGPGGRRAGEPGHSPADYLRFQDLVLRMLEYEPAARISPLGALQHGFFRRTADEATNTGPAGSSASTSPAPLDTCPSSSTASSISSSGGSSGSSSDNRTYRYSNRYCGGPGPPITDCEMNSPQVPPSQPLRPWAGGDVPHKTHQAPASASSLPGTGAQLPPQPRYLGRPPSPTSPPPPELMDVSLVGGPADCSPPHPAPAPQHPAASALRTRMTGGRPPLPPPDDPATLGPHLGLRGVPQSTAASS
Vascular endothelial growth factor receptor 2 (Homo sapiens), sequence (P35968 whole entry): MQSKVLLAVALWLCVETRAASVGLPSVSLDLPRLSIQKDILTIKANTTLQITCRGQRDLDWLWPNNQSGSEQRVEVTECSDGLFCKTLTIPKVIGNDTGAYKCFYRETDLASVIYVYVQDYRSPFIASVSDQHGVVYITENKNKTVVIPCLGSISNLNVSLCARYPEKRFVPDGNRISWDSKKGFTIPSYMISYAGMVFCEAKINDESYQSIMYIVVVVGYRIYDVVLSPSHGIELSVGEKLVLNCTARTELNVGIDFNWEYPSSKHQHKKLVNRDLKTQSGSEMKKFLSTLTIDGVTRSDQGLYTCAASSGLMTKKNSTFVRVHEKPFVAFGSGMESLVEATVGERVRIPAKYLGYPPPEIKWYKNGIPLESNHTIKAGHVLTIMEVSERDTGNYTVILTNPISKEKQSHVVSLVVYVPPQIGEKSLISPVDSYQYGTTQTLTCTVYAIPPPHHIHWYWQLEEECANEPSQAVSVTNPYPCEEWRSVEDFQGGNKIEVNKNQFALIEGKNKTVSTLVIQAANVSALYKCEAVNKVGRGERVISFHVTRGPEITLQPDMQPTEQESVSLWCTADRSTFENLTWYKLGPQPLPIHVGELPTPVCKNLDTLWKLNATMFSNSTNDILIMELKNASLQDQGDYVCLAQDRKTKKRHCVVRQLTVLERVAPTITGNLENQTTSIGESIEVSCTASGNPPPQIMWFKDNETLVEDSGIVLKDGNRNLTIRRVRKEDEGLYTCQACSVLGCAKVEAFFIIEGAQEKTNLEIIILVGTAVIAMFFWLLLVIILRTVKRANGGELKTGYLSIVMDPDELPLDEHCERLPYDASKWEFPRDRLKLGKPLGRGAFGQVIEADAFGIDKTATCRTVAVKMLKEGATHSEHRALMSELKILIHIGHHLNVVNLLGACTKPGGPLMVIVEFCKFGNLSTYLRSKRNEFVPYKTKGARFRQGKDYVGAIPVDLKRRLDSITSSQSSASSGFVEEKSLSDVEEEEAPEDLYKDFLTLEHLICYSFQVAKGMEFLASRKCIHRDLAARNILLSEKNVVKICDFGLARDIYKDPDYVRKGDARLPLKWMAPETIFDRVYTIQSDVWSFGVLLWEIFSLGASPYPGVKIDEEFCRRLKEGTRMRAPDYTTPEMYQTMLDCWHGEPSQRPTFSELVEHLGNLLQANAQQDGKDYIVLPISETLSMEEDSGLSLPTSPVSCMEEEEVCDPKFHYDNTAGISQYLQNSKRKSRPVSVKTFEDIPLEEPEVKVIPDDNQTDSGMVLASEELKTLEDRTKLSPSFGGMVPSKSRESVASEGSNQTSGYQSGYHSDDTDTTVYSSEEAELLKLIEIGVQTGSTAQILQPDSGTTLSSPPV
BDNF/NT-3 growth factors receptor (Homo sapiens), sequence (Q16620 32-822 limits assumed): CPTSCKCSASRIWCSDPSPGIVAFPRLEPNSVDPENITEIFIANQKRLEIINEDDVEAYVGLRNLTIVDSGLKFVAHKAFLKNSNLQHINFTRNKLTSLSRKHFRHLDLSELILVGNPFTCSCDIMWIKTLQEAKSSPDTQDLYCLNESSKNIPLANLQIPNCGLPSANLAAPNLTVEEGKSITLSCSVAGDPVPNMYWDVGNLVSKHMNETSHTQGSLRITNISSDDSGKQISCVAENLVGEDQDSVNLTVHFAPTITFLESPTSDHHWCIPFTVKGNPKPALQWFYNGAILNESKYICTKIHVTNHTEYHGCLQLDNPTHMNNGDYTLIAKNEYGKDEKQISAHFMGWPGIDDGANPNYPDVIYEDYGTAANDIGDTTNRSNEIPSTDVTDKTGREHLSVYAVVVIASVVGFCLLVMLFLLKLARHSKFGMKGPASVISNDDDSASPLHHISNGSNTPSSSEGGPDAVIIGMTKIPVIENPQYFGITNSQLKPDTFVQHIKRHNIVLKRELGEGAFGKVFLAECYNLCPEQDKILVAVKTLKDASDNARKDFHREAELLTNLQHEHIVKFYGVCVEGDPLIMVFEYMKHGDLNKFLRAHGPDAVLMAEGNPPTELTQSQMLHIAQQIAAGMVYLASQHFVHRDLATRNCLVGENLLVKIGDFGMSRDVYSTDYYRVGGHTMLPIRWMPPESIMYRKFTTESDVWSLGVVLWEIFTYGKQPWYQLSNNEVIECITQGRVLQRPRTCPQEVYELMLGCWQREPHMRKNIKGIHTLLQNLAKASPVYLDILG

pIC50 [2]: 9.22
pIC50 [3]: 6.72
pIC50 [6]: 6.17
inhibition [7]: 68.4%
inhibition [8]: 68.4%
inhibition [9]: 54.3%
inhibition [10]: 47.7%
inhibition [11]: 41.1%
inhibition [15]: Dde
SMILES: O=C(Nc1nc2ccc(-c3cn([C@@H]4CN[C@H](C(=O)Nc5ccc(Cl)cc5Cl)C4)nn3)nc2s1)C1CC1
Activity [1]: 0.06%
inhibition at 30 µM [4]: 87.6%
Activity [5]: Non-Toxic
Activity [12]: 29.63%
viability at 5 µM [13]: 66.5%
viability at 10 µM [14]: 49.7%
